Experimental data published in ChEMBL document CHEMBL3714725, “Diaminopyrimidines as P2X3 and P2X2/3 modulators” (2010).
Activity calls are given as the source filed them. The rule behind the calls is not given here.

test system: Rattus norvegicus; experiment: Cmax in Crl:WI(GLx/BRL/Han)IGS BR(Hanover-Wistar) rat assessed as (5-(5-Iodo-2-isopropyl-4-methoxy-phenoxy)-pyrimidine-2,4-diamine) level at 0.127 mmol, po after 0.5 to 24 hrs by HPLC method; type: ADME, organism-based; set-up: dose 0.127 mmol, route oral; settings: in vivo

Q: `COc1cc(C(C)C)c(Oc2cnc(NC(=O)C(C)C)nc2N)cc1I` was tested. Which Cmax did it give?
A: Its Cmax is 61.9 ng/mL.

target: T1, P2X purinoceptor 3 (Rattus norvegicus) (UniProt P49654); experiment: Antagonist activity against rat P2X3 receptor expressed in CHOK1 cells assessed as inhibition of alpha,beta-meATP-induced calcium response incubated for 20 mins by Fluo-3AM dye based FLIPR assay; type: functional, cell-based; settings: CHO-K1
T1 sequence (whole entry): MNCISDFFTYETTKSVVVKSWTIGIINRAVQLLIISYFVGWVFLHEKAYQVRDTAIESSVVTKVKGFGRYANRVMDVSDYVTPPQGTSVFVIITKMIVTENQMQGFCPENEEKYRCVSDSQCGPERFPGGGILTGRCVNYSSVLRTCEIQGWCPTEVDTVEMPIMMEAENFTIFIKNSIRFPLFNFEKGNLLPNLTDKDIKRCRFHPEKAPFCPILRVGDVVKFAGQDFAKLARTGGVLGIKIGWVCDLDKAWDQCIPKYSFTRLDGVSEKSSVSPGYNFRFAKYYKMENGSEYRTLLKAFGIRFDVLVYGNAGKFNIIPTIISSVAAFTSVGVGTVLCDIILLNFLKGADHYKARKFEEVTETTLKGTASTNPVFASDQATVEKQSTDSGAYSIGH

Q: Which inhibition does the source give for `COc1cc(C(C)C)c(Oc2cnc(NC(=O)C(N)C(C)C)nc2N)cc1I` (centres undefined) here?
A: The inhibition was “Active”.

Q: Which inhibition does the source give for `CCC(C)C(=O)Nc1ncc(Oc2cc(I)c(OC)cc2C(C)C)c(N)n1` (centres undefined) here?
A: The inhibition was “Active”.

Q: `CC[C@@H](C)[C@@H](N)C(=O)Nc1nc(N)ncc1Oc1cc(I)c(OC)cc1C(C)C` was tested. Which inhibition did it give?
A: Its inhibition is “Active”.

Q: With `COc1cc(C(C)C)c(Oc2cnc(NC(=O)c3ccccn3)nc2N)cc1I` as the compound, how does the inhibition read?
A: Its inhibition is “Active”.

Q: With `CCCC(=O)Nc1ncc(Oc2cc(I)c(OC)cc2C(C)C)c(NC(=O)CCC)n1` as the compound, how does the inhibition read?
A: Its inhibition is “Active”.

Q: With `C#Cc1cc(Oc2cnc(N)nc2NC(=O)c2cccn2C)c(C(C)C)cc1OC` as the compound, how does the inhibition read?
A: Its inhibition is “Active”.

Q: How did the inhibition turn out when `CCCCC(=O)Nc1ncc(Oc2cc(I)c(OC)cc2C(C)C)c(NC(=O)CCCC)n1` was run?
A: The inhibition was “Active”.

Q: How did the inhibition turn out when `COCCOCC(=O)Nc1nc(N)ncc1Oc1cc(I)c(OC)cc1C(C)C` was run?
A: The inhibition was “Active”.

Q: How did the inhibition turn out when `COc1cc(C(C)C)c(Oc2cnc(NC(=O)[C@H](N)[C@H](C)C(C)C)nc2N)cc1I` was run?
A: Its inhibition is “Active”.

Q: `C#Cc1cc(Oc2cnc(NC(=O)C(C)(C)C)nc2NC(=O)C(C)(C)C)c(C(C)C)cc1OC` was tested. Which inhibition did it give?
A: Its inhibition is “Active”.

Q: `C#Cc1cc(Oc2cnc(NC(=O)CC(C)(C)C)nc2N)c(C(C)C)cc1OC` was tested. Which inhibition did it give?
A: The inhibition was “Active”.

Q: How did the inhibition turn out when `COCC(=O)Nc1ncc(Oc2cc(I)c(OC)cc2C(C)C)c(N)n1` was run?
A: Its inhibition is “Active”.

Q: With `COc1cc(C(C)C)c(Oc2cnc(NC(=O)N3CCC(O)CC3)nc2N)cc1I` as the compound, how does the inhibition read?
A: Its inhibition is “Active”.

Q: How did the inhibition turn out when `COc1cc(C(C)C)c(Oc2cnc(NC(C)=O)nc2NC(C)=O)cc1I` was run?
A: The inhibition was “Active”.

Q: `COc1cc(C(C)C)c(Oc2cnc(NC(=O)c3ccnnc3)nc2N)cc1I` was tested. Which inhibition did it give?
A: Its inhibition is “Active”.

Q: How did the inhibition turn out when `COc1cc(C(C)C)c(Oc2cnc(NC(=O)N3CCCCC3)nc2N)cc1I` was run?
A: The inhibition was “Active”.

Q: For `COc1cc(C(C)C)c(Oc2cnc(N)nc2NC(=O)C(C)(C)C)cc1I`, which inhibition is on record?
A: Its inhibition is “Active”.

Q: For `COc1cc(C(C)C)c(Oc2cnc(NC(=O)CCC(=O)O)nc2N)cc1I`, which inhibition is on record?
A: Its inhibition is “Active”.

Q: How did the inhibition turn out when `CCCCC(=O)Nc1ncc(Oc2cc(I)c(OC)cc2C(C)C)c(N)n1` was run?
A: Its inhibition is “Active”.

Q: For `COc1cc(C(C)C)c(Oc2cnc(NC(=O)C3CCN(C)CC3)nc2N)cc1I`, which inhibition is on record?
A: The inhibition was “Active”.

Q: Which inhibition does the source give for `COc1cc(C(C)C)c(Oc2cnc(NC(=O)N3CCOCC3)nc2NC(=O)N2CCOCC2)cc1I` here?
A: The inhibition was “Active”.

Q: For `COc1cc(C(C)C)c(Oc2cnc(NC(=O)OCC(C)C)nc2N)cc1I`, which inhibition is on record?
A: Its inhibition is “Active”.

Q: How did the inhibition turn out when `COc1cc(C(C)C)c(Oc2cnc(NC(=O)C(C)C)nc2NC(=O)C(C)C)cc1I` was run?
A: Its inhibition is “Active”.

Q: How did the inhibition turn out when `COc1cc(C(C)C)c(Oc2cnc(N)nc2NC(=O)c2ccccn2)cc1I` was run?
A: The inhibition was “Active”.

Q: `C#Cc1cc(Oc2cnc(N)nc2NC(=O)CC(C)(C)C)c(C(C)C)cc1OC` was tested. Which inhibition did it give?
A: Its inhibition is “Active”.

Q: For `CCOC(=O)Nc1ncc(Oc2cc(I)c(OC)cc2C(C)C)c(N)n1`, which inhibition is on record?
A: The inhibition was “Active”.

Q: With `COc1cc(C(C)C)c(Oc2cnc(N)nc2NC(=O)C2CCN(C)CC2)cc1I` as the compound, how does the inhibition read?
A: The inhibition was “Active”.

Q: `COc1cc(C(C)C)c(Oc2cnc(NC(=O)C(C)(C)C)nc2N)cc1I` was tested. Which inhibition did it give?
A: The inhibition was “Active”.

Q: `COc1cc(C(C)C)c(Oc2cnc(N)nc2NC(=O)C2CCN(C(C)=O)CC2)cc1I` was tested. Which inhibition did it give?
A: Its inhibition is “Active”.

Q: Which inhibition does the source give for `COc1cc(C(C)C)c(Oc2cnc(NC(=O)c3cnc[nH]3)nc2N)cc1I` here?
A: The inhibition was “Active”.

Q: How did the inhibition turn out when `COc1cc(C(C)C)c(Oc2cnc(NC(C)=O)nc2N)cc1I` was run?
A: The inhibition was “Active”.

Q: `COc1cc(C(C)C)c(Oc2cnc(NC(=O)N3CCC(N(C)C)CC3)nc2N)cc1I` was tested. Which inhibition did it give?
A: The inhibition was “Active”.

Q: `COc1cc(C(C)C)c(Oc2cnc(NC(=O)CC(C)C)nc2NC(=O)CC(C)C)cc1I` was tested. Which inhibition did it give?
A: The inhibition was “Active”.

Q: `CCOC(=O)Nc1ncc(Oc2cc(I)c(OC)cc2C(C)C)c(NC(=O)OCC)n1` was tested. Which inhibition did it give?
A: Its inhibition is “Active”.

Q: `COCCOCC(=O)Nc1ncc(Oc2cc(I)c(OC)cc2C(C)C)c(N)n1` was tested. Which inhibition did it give?
A: The inhibition was “Active”.

Q: For `COc1cc(C(C)C)c(Oc2cnc(NC(=O)c3ccccc3)nc2N)cc1I`, which inhibition is on record?
A: Its inhibition is “Active”.

Q: For `CCC(C)(C)C(=O)Nc1ncc(Oc2cc(I)c(OC)cc2C(C)C)c(N)n1`, which inhibition is on record?
A: The inhibition was “Active”.

Q: For `C#Cc1cc(Oc2cnc(N)nc2NC(=O)CCC)c(C(C)C)cc1OC`, which inhibition is on record?
A: Its inhibition is “Active”.

Q: `COc1cc(C(C)C)c(Oc2cnc(NC(=O)COC(C)=O)nc2NC(=O)COC(C)=O)cc1I` was tested. Which inhibition did it give?
A: The inhibition was “Active”.

Q: `COc1cc(C(C)C)c(Oc2cnc(NC(=O)C(C)(C)O)nc2N)cc1I` was tested. Which inhibition did it give?
A: Its inhibition is “Active”.

Q: How did the inhibition turn out when `COc1cc(C(C)C)c(Oc2cnc(N)nc2NC(=O)c2cnc[nH]2)cc1I` was run?
A: Its inhibition is “Active”.

Q: Which inhibition does the source give for `COc1cc(C(C)C)c(Oc2cnc(NC(=O)C3CCCN3C(C)=O)nc2N)cc1I` (centres undefined) here?
A: Its inhibition is “Active”.

Q: With `COc1cc(C(C)C)c(Oc2cnc(N)nc2NC(=O)c2ccccc2)cc1I` as the compound, how does the inhibition read?
A: Its inhibition is “Active”.

Q: Which inhibition does the source give for `COc1cc(C(C)C)c(Oc2cnc(NC(=O)c3cnc(C)cn3)nc2N)cc1I` here?
A: The inhibition was “Active”.

Q: How did the inhibition turn out when `COc1cc(C(C)C)c(Oc2cnc(NC(=O)CO)nc2N)cc1I` was run?
A: Its inhibition is “Active”.

Q: `COc1cc(C(C)C)c(Oc2cnc(NC(=O)[C@@H]3CCCN3)nc2N)cc1I` was tested. Which inhibition did it give?
A: Its inhibition is “Active”.

Q: With `COc1cc(C(C)C)c(Oc2cnc(NC(=O)c3cccnc3)nc2N)cc1I` as the compound, how does the inhibition read?
A: The inhibition was “Active”.

Q: How did the inhibition turn out when `C#Cc1cc(Oc2cnc(N)nc2NC(=O)c2ccccc2)c(C(C)C)cc1OC` was run?
A: Its inhibition is “Active”.

Q: `COc1cc(C(C)C)c(Oc2cnc(N)nc2NC(=O)c2cnc(C)cn2)cc1I` was tested. Which inhibition did it give?
A: The inhibition was “Active”.

Q: Which inhibition does the source give for `COc1cc(C(C)C)c(Oc2cnc(N)nc2NC(=O)[C@@H]2CCCO2)cc1I` here?
A: The inhibition was “Active”.

Q: Which inhibition does the source give for `COc1cc(C(C)C)c(Oc2cnc(N)nc2NC(=O)c2ccco2)cc1I` here?
A: Its inhibition is “Active”.

Q: For `COc1cc(C(C)C)c(Oc2cnc(NC(=O)c3cnccn3)nc2N)cc1I`, which inhibition is on record?
A: The inhibition was “Active”.

Q: `COc1cc(C(C)C)c(Oc2cnc(NC(=O)C(C)(C)OC(C)=O)nc2N)cc1I` was tested. Which inhibition did it give?
A: Its inhibition is “Active”.

Q: With `CC[C@@H](C)[C@@H](N)C(=O)Nc1ncc(Oc2cc(I)c(OC)cc2C(C)C)c(N)n1` as the compound, how does the inhibition read?
A: The inhibition was “Active”.

Q: How did the inhibition turn out when `COc1cc(C(C)C)c(Oc2cnc(NC(=O)C3CCN(C(C)=O)CC3)nc2NC(=O)C2CCN(C(C)=O)CC2)cc1I` was run?
A: Its inhibition is “Active”.

Q: Which inhibition does the source give for `COc1cc(C(C)C)c(Oc2cnc(NC(=O)CC(C)C)nc2N)cc1I` here?
A: The inhibition was “Active”.

Q: With `CCCC(=O)Nc1ncc(Oc2cc(I)c(OC)cc2C(C)C)c(N)n1` as the compound, how does the inhibition read?
A: The inhibition was “Active”.

Q: For `C#Cc1cc(Oc2cnc(NC(=O)CCC)nc2N)c(C(C)C)cc1OC`, which inhibition is on record?
A: Its inhibition is “Active”.

Q: How did the inhibition turn out when `C#Cc1cc(Oc2cnc(NC(=O)c3ccccc3)nc2N)c(C(C)C)cc1OC` was run?
A: The inhibition was “Active”.

Q: Which inhibition does the source give for `COc1cc(C(C)C)c(Oc2cnc(NC(=O)COC(C)=O)nc2N)cc1I` here?
A: Its inhibition is “Active”.

Q: `COc1cc(C(C)C)c(Oc2cnc(NC(=O)N3CCOCC3)nc2N)cc1I` was tested. Which inhibition did it give?
A: The inhibition was “Active”.

Q: For `COc1cc(C(C)C)c(Oc2cnc(NC(=O)N3CCC(C)CC3)nc2N)cc1I`, which inhibition is on record?
A: Its inhibition is “Active”.

Q: For `C#Cc1cc(Oc2cnc(NC(C)=O)nc2N)c(C(C)C)cc1OC`, which inhibition is on record?
A: Its inhibition is “Active”.

Q: For `COc1cc(C(C)C)c(Oc2cnc(N)nc2NC(=O)C2CCOCC2)cc1I`, which inhibition is on record?
A: Its inhibition is “Active”.

Q: Which inhibition does the source give for `COc1cc(C(C)C)c(Oc2cnc(NC(=O)[C@@H]3CCCO3)nc2N)cc1I` here?
A: The inhibition was “Active”.

Q: `COc1cc(C(C)C)c(Oc2cnc(NC(=O)c3ccncc3)nc2N)cc1I` was tested. Which inhibition did it give?
A: The inhibition was “Active”.

Q: For `COc1cc(C(C)C)c(Oc2cnc(NC(=O)N3CCN(C)CC3)nc2N)cc1I`, which inhibition is on record?
A: The inhibition was “Active”.

Q: `COc1cc(C(C)C)c(Oc2cnc(N)nc2NC(=O)c2cnccn2)cc1I` was tested. Which inhibition did it give?
A: The inhibition was “Active”.

Q: `COc1cc(C(C)C)c(Oc2cnc(N)nc2NC(=O)c2cccn2C)cc1I` was tested. Which inhibition did it give?
A: The inhibition was “Active”.

Q: Which inhibition does the source give for `COc1cc(C(C)C)c(Oc2cnc(NC(=O)Cc3cccnc3)nc2N)cc1I` here?
A: Its inhibition is “Active”.

Q: Which inhibition does the source give for `COc1cc(C(C)C)c(Oc2cnc(NC(=O)c3ccco3)nc2N)cc1I` here?
A: The inhibition was “Active”.

Q: For `CCC(C)(C)C(=O)Nc1nc(N)ncc1Oc1cc(I)c(OC)cc1C(C)C`, which inhibition is on record?
A: Its inhibition is “Active”.

test system: Rattus norvegicus; experiment: AUC in Crl:WI(GLx/BRL/Han)IGS BR(Hanover-Wistar) rat assessed as (5-(5-Iodo-2-isopropyl-4-methoxy-phenoxy)-pyrimidine-2,4-diamine) level at 0.127 mmol, po after 0.5 to 24 hrs by HPLC method; type: ADME, organism-based; set-up: time upper 24 hr, time lower 0.5 hr, dose 0.127 mmol, route oral; settings: in vivo

Q: With `COc1cc(C(C)C)c(Oc2cnc(NC(=O)C(C)C)nc2N)cc1I` as the compound, how does the AUC read?
A: The AUC was 200 ng·h/mL.
